Laboratory results taken from ChEMBL document CHEMBL3864161, “5-Aminopyrazole-4-carboxamide analogues are selective inhibitors of Plasmodium falciparum microgametocyte exflagellation and potential malaria transmission blocking agents” (Bioorg Med Chem Lett, 2016).

Biological target: T1, Calmodulin-domain protein kinase 1 (Toxoplasma gondii, UniProt Q9BJF5)
T1 sequence (Q9BJF5 whole entry): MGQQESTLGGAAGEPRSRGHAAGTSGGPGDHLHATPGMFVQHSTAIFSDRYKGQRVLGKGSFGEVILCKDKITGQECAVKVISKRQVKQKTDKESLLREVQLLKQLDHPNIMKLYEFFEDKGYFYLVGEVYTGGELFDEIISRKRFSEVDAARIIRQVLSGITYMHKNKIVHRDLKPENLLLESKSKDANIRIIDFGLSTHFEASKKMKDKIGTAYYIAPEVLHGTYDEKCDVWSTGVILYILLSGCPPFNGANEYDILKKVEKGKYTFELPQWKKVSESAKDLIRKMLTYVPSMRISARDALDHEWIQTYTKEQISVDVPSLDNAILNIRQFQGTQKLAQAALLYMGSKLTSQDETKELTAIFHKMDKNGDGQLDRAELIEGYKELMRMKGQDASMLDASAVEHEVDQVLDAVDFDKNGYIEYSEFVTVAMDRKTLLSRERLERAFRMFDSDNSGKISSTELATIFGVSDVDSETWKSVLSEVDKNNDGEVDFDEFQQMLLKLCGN
Experiment: not given
Settings: not given
For `CCOc1ccc2cc(-c3nn(C(C)C4CC4)c(N)c3C(N)=O)cnc2c1` (stereo unspecified), the IC50 was 14 nM.
In the case of `CCOc1ccc2cc(-c3nn(C4CCCCC4)c(N)c3C(N)=O)ccc2n1`, the IC50 is reported as 6 nM.
In the case of `CC(C)(C)n1nc(-c2ccc3nc(OC4CC4)ccc3c2)c(C(N)=O)c1N`, the IC50 is reported as 5 nM.
`CCOc1ccc2cc(-c3nn(C(C)C(C)(C)CO)c(N)c3C(N)=O)cnc2c1` (stereo unspecified) showed an IC50 of 24 nM.
In the case of `CCOc1ccc2cc(-c3nn(C(C)C)c(N)c3C(N)=O)ccc2n1`, the IC50 is reported as 7 nM.
`CC(C)n1nc(-c2ccc3nc(OC4CCC4)ccc3c2)c(C(N)=O)c1N` showed an IC50 of 8 nM.
Molecule `CCOc1ccc2cc(-c3nn(C4CCOC4)c(N)c3C(N)=O)cnc2c1` (stereo unspecified) has an IC50 of 12 nM.
With `CCOc1ccc2cc(-c3nn(C(C)C(C)C)c(N)c3C(N)=O)cnc2c1` (stereo unspecified) the IC50 was 18 nM.

Biological target: Proto-oncogene tyrosine-protein kinase Src (Homo sapiens, UniProt P12931)
Sequence (P12931 2-536 limits assumed): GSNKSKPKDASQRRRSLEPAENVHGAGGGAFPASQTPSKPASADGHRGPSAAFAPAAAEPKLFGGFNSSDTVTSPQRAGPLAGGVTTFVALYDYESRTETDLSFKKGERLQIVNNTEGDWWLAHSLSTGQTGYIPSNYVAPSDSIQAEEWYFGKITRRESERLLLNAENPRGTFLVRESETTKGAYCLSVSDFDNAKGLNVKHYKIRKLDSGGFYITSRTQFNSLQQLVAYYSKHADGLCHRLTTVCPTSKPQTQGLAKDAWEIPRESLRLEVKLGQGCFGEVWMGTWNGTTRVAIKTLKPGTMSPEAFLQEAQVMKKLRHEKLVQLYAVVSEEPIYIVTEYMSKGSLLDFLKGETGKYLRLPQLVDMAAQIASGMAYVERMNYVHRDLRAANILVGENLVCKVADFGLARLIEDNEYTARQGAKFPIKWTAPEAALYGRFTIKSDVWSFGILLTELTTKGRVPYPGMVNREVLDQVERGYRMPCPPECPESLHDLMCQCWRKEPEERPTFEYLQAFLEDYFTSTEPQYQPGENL
Experiment: not given
Settings: not given
With `CCOc1ccc2cc(-c3nn(CC(C)(C)CO)c(N)c3C(N)=O)cnc2c1` the IC50 was over 10000 nM.
`CCOc1ccc2cc(-c3nn(C4CCOC4)c(N)c3C(N)=O)cnc2c1` (stereo unspecified) showed an IC50 of over 10000 nM.

System: not listed separately
Experiment: Inhibition of recombinant Plasmodium falciparum CDPK4 S147M mutant using Syntide 2 as substrate assessed as decrease in depletion of ATP by Kinase glo luciferase assay
Settings: not given
Molecule `CCOc1ccc2cc(-c3nn(CC(C)(C)CO)c(N)c3C(N)=O)cnc2c1` has an IC50 of over 2000 nM.
Molecule `CCOc1ccc2cc(-c3nn(C4CCCCC4)c(N)c3C(N)=O)ccc2n1` has an IC50 of over 2000 nM.
With `CC(C)(C)n1nc(-c2ccc3cc(O)ccc3c2)c(C(N)=O)c1N` the IC50 was over 2000 nM.
With `NC(=O)c1c(-c2ccc3ccccc3c2)nn(CC(F)(F)F)c1N` the IC50 was over 2000 nM.
With `COc1ccc2cc(-c3nn(C(C)(C)C)c(N)c3C(N)=O)cnc2c1` the IC50 was over 2000 nM.
In the case of `CCOc1ccc2cc(-c3nn(C(C)(C)C)c(N)c3C(N)=O)cnc2c1`, the IC50 is reported as over 2000 nM.
Molecule `CC(C)n1nc(-c2ccc3nc(OC4CCC4)ccc3c2)c(C(N)=O)c1N` has an IC50 of over 2000 nM.
For `CC(C)(C)n1nc(-c2cnc3cc(OC4CC4)ccc3c2)c(C(N)=O)c1N`, the IC50 was over 2000 nM.
Molecule `CCOc1ccc2cc(-c3nn(C(C)(C)C)c(N)c3C(N)=O)ccc2c1` has an IC50 of over 2000 nM.
For `CCOc1ccc2cc(-c3nn(C(C)C)c(N)c3C(N)=O)cnc2c1`, the IC50 was over 2000 nM.

System: not listed separately
Experiment: Cytotoxicity against human HepG2 cells assessed as growth inhibition after 48 to 72 hrs by Alamar blue assay
Format: toxicity, cell-based
Settings: not given
With `CCOc1ccc2cc(-c3nn(CC(C)(C)CO)c(N)c3C(N)=O)cnc2c1` the EC50 was over 30000 nM.
With `CCOc1ccc2cc(-c3nn(C4CCCCC4)c(N)c3C(N)=O)ccc2n1` the EC50 was over 30000 nM.
Molecule `CC(C)(C)n1nc(-c2ccc3cc(O)ccc3c2)c(C(N)=O)c1N` has an EC50 of over 30000 nM.
`NC(=O)c1c(-c2ccc3ccccc3c2)nn(CC(F)(F)F)c1N` showed an EC50 of over 30000 nM.
With `COc1ccc2cc(-c3nn(C(C)(C)C)c(N)c3C(N)=O)cnc2c1` the EC50 was over 30000 nM.
`CCOc1ccc2cc(-c3nn(C(C)(C)C)c(N)c3C(N)=O)cnc2c1` showed an EC50 of over 30000 nM.
`CC(C)n1nc(-c2ccc3nc(OC4CCC4)ccc3c2)c(C(N)=O)c1N` showed an EC50 of over 30000 nM.
In the case of `CC(C)(C)n1nc(-c2cnc3cc(OC4CC4)ccc3c2)c(C(N)=O)c1N`, the EC50 is reported as over 30000 nM.
In the case of `CCOc1ccc2cc(-c3nn(C(C)(C)C)c(N)c3C(N)=O)ccc2c1`, the EC50 is reported as over 30000 nM.
In the case of `CCOc1ccc2cc(-c3nn(C(C)C)c(N)c3C(N)=O)cnc2c1`, the EC50 is reported as over 30000 nM.

System: not listed separately
Experiment: Cytotoxicity against human CRL8155 cells assessed as growth inhibition after 48 to 72 hrs by Alamar blue assay
Format: toxicity, cell-based
Settings: not given
`CCOc1ccc2cc(-c3nn(CC(C)(C)CO)c(N)c3C(N)=O)cnc2c1` gave an EC50 of over 30000 nM.
In the case of `CCOc1ccc2cc(-c3nn(C4CCCCC4)c(N)c3C(N)=O)ccc2n1`, the EC50 is reported as over 30000 nM.
`CC(C)(C)n1nc(-c2ccc3cc(O)ccc3c2)c(C(N)=O)c1N` showed an EC50 of over 30000 nM.
Work on `NC(=O)c1c(-c2ccc3ccccc3c2)nn(CC(F)(F)F)c1N` yielded an EC50 of over 30000 nM.
Molecule `COc1ccc2cc(-c3nn(C(C)(C)C)c(N)c3C(N)=O)cnc2c1` has an EC50 of over 30000 nM.
`CCOc1ccc2cc(-c3nn(C(C)(C)C)c(N)c3C(N)=O)cnc2c1` showed an EC50 of over 30000 nM.
In the case of `CC(C)n1nc(-c2ccc3nc(OC4CCC4)ccc3c2)c(C(N)=O)c1N`, the EC50 is reported as over 30000 nM.
In the case of `CC(C)(C)n1nc(-c2cnc3cc(OC4CC4)ccc3c2)c(C(N)=O)c1N`, the EC50 is reported as over 30000 nM.
Work on `CCOc1ccc2cc(-c3nn(C(C)(C)C)c(N)c3C(N)=O)ccc2c1` yielded an EC50 of over 30000 nM.
`CCOc1ccc2cc(-c3nn(C(C)C)c(N)c3C(N)=O)cnc2c1` gave an EC50 of over 30000 nM.

System: Plasmodium falciparum
Experiment: microbe, parasite or virus in culture
Settings: read-out: INH
For `CCOc1ccc2cc(-c3nn(CC(C)(C)CO)c(N)c3C(N)=O)cnc2c1`, the inhibition at 0.1 µM was 81%.
With `CCOc1ccc2cc(-c3nn(C4CCCCC4)c(N)c3C(N)=O)ccc2n1` the inhibition at 0.1 µM was 39%.
Work on `CC(C)(C)n1nc(-c2ccc3cc(O)ccc3c2)c(C(N)=O)c1N` yielded an inhibition at 0.1 µM of 64%.

System: Plasmodium falciparum
Experiment: Inhibition of male gametocytes exflagellation of Plasmodium falciparum at 1 uM relative to control
Format: functional
Settings: not given
`CCOc1ccc2cc(-c3nn(CC(C)(C)CO)c(N)c3C(N)=O)cnc2c1` showed an inhibition at 1 µM of 87%.
In the case of `CCOc1ccc2cc(-c3nn(C4CCCCC4)c(N)c3C(N)=O)ccc2n1`, the inhibition at 1 µM is reported as 87%.
Molecule `CC(C)(C)n1nc(-c2ccc3cc(O)ccc3c2)c(C(N)=O)c1N` has an inhibition at 1 µM of 87%.
Molecule `NC(=O)c1c(-c2ccc3ccccc3c2)nn(CC(F)(F)F)c1N` has an inhibition at 1 µM of 87%.
With `COc1ccc2cc(-c3nn(C(C)(C)C)c(N)c3C(N)=O)cnc2c1` the inhibition at 1 µM was 87%.
Work on `CC(C)n1nc(-c2ccc3nc(OC4CCC4)ccc3c2)c(C(N)=O)c1N` yielded an inhibition at 1 µM of 87%.
Molecule `CCOc1ccc2cc(-c3nn(C(C)(C)C)c(N)c3C(N)=O)ccc2c1` has an inhibition at 1 µM of 87%.
In the case of `CCOc1ccc2cc(-c3nn(C(C)C)c(N)c3C(N)=O)cnc2c1`, the inhibition at 1 µM is reported as 87%.
